Data set [1] in a line: Relative stability (non-competitive and competitive interconversion) experiments of crystal forms of Compound 1. The following applies: pXRD, DSC, 1H-NMR.
Procedure: For the non-competitive experiments, only a single starting crystal form was used to study the potential conversion to another more stabb form. […] The slurry was cooled to 25-30 °C, filtered, suction dried for 1 hour and dried in a vacuum oven at 70 °C and 8 kPa absolute pressure for 12 hours. […] The slurry was cooled to 25-30 °C, filtered, suction dried for 1 hour and dried in a vacuum oven at 70 °C and 8 kPa absolute pressure for 12 hours. […] The slurry was cooled to 25-30 °C, filtered, suction dried for 1 hour and dried in a vacuum oven at 70 °C and 8 kPa absolute pressure for 12 hours.
A short description of data set [2]: Solid form stability of forms of compound of formula (IV) (Temperature / Humidity Controlled XRPD, storage, suspension). The class given is physicochemical. On the procedure:
The term"XRPD" denotes the analytical method of X-Ray Powder Diffraction. XRPD patterns were recorded at ambient conditions in transmission geometry with a STOE STADI P diffractometer (Cu K alpha radiation source, primary monochromator, position sensitive detector, angular range 3° to 42° 2Theta, approximately 60 minutes total measurement time). The repeatability of the angular values is in the range of 2Theta ±0.2°. The term "approximately" given in combination with an angular value denotes the repeatability which is in the range of 2Theta ±0.2°. The samples were prepared and analyzed without further processing (e.g. grinding or sieving) of the substance. The relative XRPD peak intensity is dependent upon many factors such as structure factor, temperature factor, crystallinity, polarization factor, multiplicity, and Lorentz factor. Relative intensities may vary considerably from one measurement to another due to preferred orientation effects. Humidity Controlled XRPD analyses were performed in reflection geometry with a Siemens D5000 Diffractometer (Cu radiation source, Ni K beta filter, Scintillation detector, angular range 3° to 42° 2Theta, approximately 180 minutes total measurement time per humidity level). The diffractometer is equipped with an MRI (Materials Research Instruments) humidity chamber. The humidity within the chamber is adjusted with an ANSYCO humidity controller (SYCOS H-HOT). For single crystal structure analysis a single crystal sample was mounted in a nylon loop on a goniometer and measured at ambient conditions. Alternatively, the crystal was cooled in a nitrogen stream during measurement. Data were collected on a GEMINI R Ultra diffractometer from Oxford Diffraction. Cu-radiation of 1.54 A wavelength was used for data collection. Data was processed with the Oxford Diffraction CRYSALIS software. The crystal structure was solved and refined with standard crystallographic software. In this case the program ShelXTL from Bruker AXS (Karlsruhe) was used. The abbreviation "FWHM" denotes the full width at half maximum, which is a width of a peak (e.g. appearing in a spectrum, particularly in an XRPD pattern) at its half height. The term "sharp Bragg diffraction peak" in connection with X-ray diffraction patterns denotes a peak which is observed if Bragg' s law of diffraction is fulfilled. Generally, the FWHM of a sharp Bragg diffraction peak is less than 0.5° 2-theta. The term "amorphous halo" in connection with X-ray diffraction patterns denotes an approximately bell- shaped diffraction maximum in the X-ray powder diffraction pattern of an amorphous material. The FWHM of an amorphous halo is on principle larger than the FWHM of the peak of crystalline material. The terms "FTIR" and "IR" denote the analytical method of infrared spectroscopy. The IR-spectra of the samples are recorded as film of a Nujol suspension consisting of approx. 5 mg of sample and approx. 5 mg of Nujol (mineral oil) between two sodium chloride plates (cross section 13 mm) in transmittance with a FTIR- spectrometer. The spectra were recorded in spectral range between 4000 cm"1 and 600 cm"1, resolution 2 cm"1, and 300 coadded scans on a Magna 860 (thermo/Nicolet) equipped with a DTGS detector. The term "Raman" denotes the analytical method of Raman spectroscopy. For recording Raman spectra, the samples were spread on a glass slide. Raman spectra were recorded in the range of 150-3800 cm"1 with an ARAMIS (HoribaJobinYvon) Raman microscope equipped with a Peltier cooled CCD detector, at excitation of 633 nm, a 1200 1/mm grating, a x50 objective and with 3 exposures of 3s, or 7s for weak Raman scatterers. The term "DSC" denotes the analytical method of Differential Scanning Calorimetry. DSC thermograms were recorded using a Mettler-Toledo™ differential scanning calorimeter DSC820, DSC821 or DSC1 with a FRS05 sensor. […]

Data set [3] is described as follows: VT-XRPD / VH-XRPD / drying stability of HCl salt forms of Formula V. The settings on record: for stability of the salt form on drying under vacuum at room temperature: ca. 16 hours, XRPD.
Procedure: The humidity was controlled by mixing streams of dry and wet nitrogen, with a total flow rate of 200 mL.min-1 The relative humidity was measured by a calibrated Rotronic probe (dynamic range of 1.0 - 100%RH), located near the sample. The weight change (mass relaxation) of the sample as a function of %RH was constantly monitored by the microbalance (accuracy ±0.005 mg). Approximately 5 - 20 mg of sample was placed in a tared mesh stainless steel basket under ambient conditions. […] A moisture sorption isotherm was performed as outlined below (2 scans giving 1 complete cycle). […] Data analysis was undertaken in Microsoft Excel using DVS Analysis Suite v6.0.0.7. […] XRPD: X-Ray Powder Diffraction patterns were collected either on a Bruker AXS C2 GADDS diffractometer or a Bruker AXS D8 diffractometer. […] The beam divergence, i.e. the effective size of the X-ray beam on the sample, was approximately 4 mm. […] In a typical experiment, the sampleis exposed to the X-ray beam for 120 seconds. The software used for data collectionwas GADDS for WNT 4.1.16 and the data were analyzed and presented using Diffrac PlusEVA vl 1.0.0.2 or vl3.0.0.2. Ambient conditions: Samples run under ambient conditions were prepared as flat plate specimens using powder as received without grinding. Approximately 1 - 2 mg of the sample was lightly pressed on aglass slide to obtain a flat surface. Non-ambient conditions: Samples run under non-ambient conditions were mounted on a silicon wafer with heat-conducting compound. The sample was then heated to the appropriate temperatureat 10.C.min_1and subsequently held isothermally for 1 minute before data collection was initiated. On a Bruker D8 diffractometer, the following parameters were used: Cu Ka radiation (40 kV, 40 mA), θ - 20 goniometer, and divergence of V4 and receiving slits, a Ge monochromator and a Lynxeye detector. […] The software used for data collection was Diffrac Plus XRD Commander v2.5.0 and the data were analyzed and presented using Diffrac Plus EVA vl 1.0.0.2 or vl3.0.0.2. Samples were run under ambient conditions as flat plate specimens using powder as received. The sample was gently packed into a cavity cut into polished, zero-background (510) silicon wafer. The sample was rotated in its own plane during analysis. The details of the data collection are: · Angular range: 2 to 42°2Θ, · Step size: 0.05°2Θ, · Collection time: 0.5 s/step.
Data set [4] in a line: Characterization of scale-up HCl Pattern 2 (Tables 16-17). The class given is physicochemical. The settings on record: for TGA heat / cool experiments: IC / TGA heat / cool experiments: XRPD: cooled and re-analysed; for solubility thermodynamic: thermodynamic from solid.
Data set [5] is described as follows: Polymorphism assessment of HCl Pattern 2 (heat/cool cycles in solvents, XRPD). Type of data set: physicochemical. The source says:
. […] Table 18. Results from the polymorph assessment

A short description of data set [6]: Gravimetric vapour sorption (GVS) of salts of Formula V. Type of data set: physicochemical.
Setting [7] is: non-competitive, refluxed in deionized water at about 95 °C for 3 hours, TGA.

“Also recorded” adds a separate entry of the source. Structures can show the parent of a compound that is named as a salt. Where two headings read alike, the source gives them in different places.

In the case of `COc1ccc(Cl)c(S(=O)(=O)NC(=O)c2cn3cc(C(F)(F)F)cc(Cl)c3n2)c1` [Form D ({drug1d}), 8-chloro-N-[(2-chloro-5-methoxyphenyl)sulfonyl]-6-(trifluoromethyl)-imidazo[1,2-a]pyridine-2-carboxamide], the “crystal form of the resulting material” value in data set [1] (setting [7]) is on record as “Form A”.
For the compound `COc1ccc(Cl)c(S(=O)(=O)NC(=O)c2cn3cc(C(F)(F)F)cc(Cl)c3n2)c1` [mixed Forms A and B, 8-chloro-N-[(2-chloro-5-methoxyphenyl)sulfonyl]-6-(trifluoromethyl)-imidazo[1,2-a]pyridine-2-carboxamide], in data set [1] (slurry in deionized water stirred at 25 °C for about 168 hours), the “crystal form of the resulting material” value is “Form A”.
On to `Cc1onc(-c2ccc(F)cc2)c1COc1ccc(C(=O)N2CCS(=O)(=O)CC2)cn1` [Form A ({drug4a}), (1,1-dioxo-1lambda6-thiomorpholin-4-yl)-{6-[3-(4-fluoro-phenyl)-5-methyl-isoxazol-4-ylmethoxy]-pyridin-3-yl]-methanone], for which, in data set [2], the “thermodynamic stability of the solid form” value is given as “metastable polymorph”. Also, the “solid form changes at elevated temperature” value in data set [2] (Temperature Controlled XRPD) is “do not show solid form changes”.
As for `COc1ccc(Cl)c(S(=O)(=O)NC(=O)c2cn3cc(C(F)(F)F)cc(Cl)c3n2)c1` [Form TS ({drug1e}), 8-chloro-N-[(2-chloro-5-methoxyphenyl)sulfonyl]-6-(trifluoromethyl)-imidazo[1,2-a]pyridine-2-carboxamide], the “crystal form of the resulting material” value in data set [1] (setting [7]) is given as “Form A”.
With `Nc1nc2cc(-c3ccc4ncc(C(=O)N5CCOCC5)n4c3)ccc2o1` [HCl Pattern 1, (6-(2-aminobenzo[d]oxazol-5-yl)imidazo[1,2-a]pyridin-3-yl)(morpholino)methanone], the “stability of the salt form on drying under vacuum at room temperature” value in data set [3] is “partially reverted to the free base”.
As for `Nc1nc2cc(-c3ccc4ncc(C(=O)N5CCOCC5)n4c3)ccc2o1` [HCl Pattern 3, (6-(2-aminobenzo[d]oxazol-5-yl)imidazo[1,2-a]pyridin-3-yl)(morpholino)methanone], in data set [3], the “stability of the salt form on drying under vacuum at room temperature” value is reported as “unstable salt form”.
On to `COc1ccc(Cl)c(S(=O)(=O)NC(=O)c2cn3cc(C(F)(F)F)cc(Cl)c3n2)c1` [Form B ({drug1b}), 8-chloro-N-[(2-chloro-5-methoxyphenyl)sulfonyl]-6-(trifluoromethyl)-imidazo[1,2-a]pyridine-2-carboxamide], for which the “crystal form of the resulting material” value in data set [1] (setting [7]) is recorded as “Form A”.
`Cc1onc(-c2ccc(F)cc2)c1COc1ccc(C(=O)N2CCS(=O)(=O)CC2)cn1` [Form E ({drug4e}), (1,1-dioxo-1lambda6-thiomorpholin-4-yl)-{6-[3-(4-fluoro-phenyl)-5-methyl-isoxazol-4-ylmethoxy]-pyridin-3-yl]-methanone]: in data set [2], the “humidity at which rapid reconversion into Form B is observed” value is on record as above 5 rH and the “thermodynamic stability of the solid form” value is on record as “only limited stability at ambient conditions”.
Usually solubility (thermodynamic) stands for the concentration in solution at equilibrium with solid. On to `Nc1nc2cc(-c3ccc4ncc(C(=O)N5CCOCC5)n4c3)ccc2o1` [HCl Pattern 2, (6-(2-aminobenzo[d]oxazol-5-yl)imidazo[1,2-a]pyridin-3-yl)(morpholino)methanone], for which the KF in data set [4] is given as 15.2 % water,; in data set [4] (assuming 2 eqs Cl) it was “corresponding to 4.3 eqs water, assuming 2 eqs Cl”. Moreover, the “TGA heat / cool experiments: IC” value is 1.6 eqsCl in data set [4] (Sample heated to 100°C) and 1.7 eqs Cl in data set [4] (Sample heated to 140°C). Also, the “TGA heat / cool experiments: XRPD” value in data set [4] (Sample heated to 100°C) and in data set [4] (Sample heated to 140°C) was “Partially crystalline HCl Pattern 2” in each case. For the same compound, the “TGA heat / cool experiments” value in data set [4] (Sample heated to 210°C) is “Sample heated to 210°C, decomposition observed”. Besides, the “Stability at 40°C/75%RH” value in data set [4] (XRPD, 3 weeks storage) is on record as “No significant changes observed by XRPD after 3 weeks storage”. The IC is listed as 1.7 eqs Cl (as determined) in data set [4] (as determined) and 2.0 eqs Cl (corrected with 15% w/w water content) in data set [4] (corrected with 15% w/w water content). The “TGA Weight loss” value stood at 8% in data set [4] (first step, by 100°C); 2.3% in data set [4] (second step, to 140°C); 8.7% in data set [4] (third step, to 210°C). In addition, the solubility (thermodynamic) in data set [4] (pH 1, simulated gastric fluid, SGF (pH1.0)) is 2800 µg/mL; in data set [4] (simulated gastric fluid, 0.1N HCl (pH 0.9)), 3500 µg/mL; in data set [4] (Water (pH 1.6)), 1600 µg/mL. The “XRPD (air dried)” value in data set [4] (scale-up HCl Pattern 2) was “New pattern (HCl Pattern 3)”. The “XRPD (vacuum dried)” value in data set [4] (scale-up HCl Pattern 2) is “Crystalline. HCl Pattern 2; also recorded: Slight differences compared to HCl Pattern 2, possibly due to differences in crystallinity”. Also, the “XRPD Result” value in data set [5] (Solvent DCM (entry -11)), in data set [5] (Solvent EtOAc (entry -08)), in data set [5] (Solvent EtOH (entry -02)), in data set [5] (Solvent IPA (10% water) (entry -06)), in data set [5] (Solvent IPA (entry -03)) and in data set [5] (Solvent MEK (entry -09)) was “HCl Pattern 2” in each case. Moreover, the “XRPD Result” value in data set [5] (Solvent MeCN (entry -05)), in data set [5] (Solvent MeOH (entry -01)), in data set [5] (Solvent Nitromethane (entry -12)), in data set [5] (Solvent TBME (entry -10)), in data set [5] (Solvent THF (5% water) (entry -07)) and in data set [5] (Solvent THF (entry -04)) was “HCl Pattern 2” throughout. The “form by XRPD after polymorph assessment” value in data set [5] (freeze-dried material, 20 vols solvent, heat/cool cycles RT to 50°C for three days) is given as “known form HCl Pattern 2”. For the same compound, the VH-XRPD result is “No change was noted between 45 and 80%RH” in data set [3] (between 45 and 80%RH); “The material starts to change below 25%RH, with full conversion to HCl Pattern 3 at 0.5%RH” in data set [3] (lowering humidity, below 25%RH to 0.5%RH); “At 13%RH the material starts to revert back to HCl Pattern 2 with complete conversion by 45%RH” in data set [3] (raising humidity, 13%RH to 45%RH). In data set [3] (complete conversion to HCl Pattern 3 at 0.5%RH, reverted completely by 45%RH), the “relative humidity to which the form is stable (VH-XRPD)” value is 14 %RH. Also, in data set [3] (reverted to partially crystalline HCl Pattern 2 upon cooling in air), the “heating temperature for conversion to a new pattern (VT-XRPD)” value was “above 80 °C”. In addition, the “VT-XRPD Heating to 100°C, then cool” value in data set [3] (scale-up HCl Pattern 2) was “Conversion to a new pattern at 80 °C (HCl 3), which returns to less crystalline HCl 2 upon cooling”. Besides, the “VT-XRPD Heating to 140°C” value in data set [3] (scale-up HCl Pattern 2) is “Conversion to HCl Pattern 3 at 80 °C that remains unchanged to 120°C, before losing crystallinity at higher temperature”. For the same compound, in data set [6] (25°C, equating to a tri-hydrate), the “uptake at the end of the analysis (GVS)” value was 10.6 wt%. In data set [6] (at the end of the experiment), the “GVS: XRPD after the experiment” value was “no significant changes noted by XRPD”. Also, the GVS entry is “Further reversible weight toss below 30%RH may indicate lower stoichiometry hydrate” in data set [6] (below 30%RH) and “Reversible dehydration observed between 30-40%RH” in data set [6] (between 30-40%RH). Moreover, the “GVS Reversible uptake” value in data set [6] (between 40-90%RH) is “Reversible uptake of ca. 6 wt% between 40-90%RH”. For the same compound, the “relative humidity to which the form appeared to be stable (GVS)” value in data set [6] (dehydration below 30%, rehydration by 40%) is listed as 30 %RH.

The values above are taken from patent publication EP2792360A1, “(1aR,12bS)-8-cyclohexyl-11-fluoro-N-((1-methylcyclopropyl)sulfonyl)-1a-((3-methyl-3,8-diazabicyclo[3.2.1]oct-8-yl)carbonyl)-1,1a,2,2b-tetrahydrocyclopropa[d]indolo[2,1-a][2]benzazepine-5-carboxamide for use in treating HCV” (IP Gesellschaft für Management mbH, priority 2013, dated 2014).
